# Legend:
# Experiment in all cases: relative viability (nuclei count vs DMSO), 5 days (fraction); higher = more cells survive
# CX-5461 + AZD7762 = compound: Cc1cnc(CNC(=O)c2c(=O)c3ccc(N4CCCN(C)CC4)nc3n3c2sc2ccccc23)cn1 [CX-5461] + NC(=O)Nc1cc(-c2cccc(F)c2)sc1C(=O)N[C@H]1CCCNC1 [AZD7762] (partner 0.2 µM)
# In short: (§1)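 A single step with final 0.05% Triton X-100, 1% formaldehyde and 1 ug/ml Hoechst fixed the cells and stained nuclei 5 days after treatment. Lung cancer cell lines in 1536-well plates had been treated by pin tool the day after seeding with one drug alone or a fixed anchor-drug dose plus five library-drug doses (not always all listed) in √10 steps, and nuclei were counted on 4× images. Relative viability is the ratio of nuclei in treated wells to nuclei in vehicle wells, taken as the median of duplicate plates.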
# CX-5461 + Olaparib = compound: Cc1cnc(CNC(=O)c2c(=O)c3ccc(N4CCCN(C)CC4)nc3n3c2sc2ccccc23)cn1 [CX-5461] + O=C(c1cc(Cc2n[nH]c(=O)c3ccccc23)ccc1F)N1CCN(C(=O)C2CC2)CC1 [Olaparib] (partner 8 µM)
# In short: as §1
# IMD-0354 + Foretinib = compound: O=C(Nc1cc(C(F)(F)F)cc(C(F)(F)F)c1)c1cc(Cl)ccc1O [IMD-0354] + COc1cc2c(Oc3ccc(NC(=O)C4(C(=O)Nc5ccc(F)cc5)CC4)cc3F)ccnc2cc1OCCCN1CCOCC1 [Foretinib] (partner 0.25 µM)
# In short: as §1
# IMD-0354 + Crizotinib = compound: O=C(Nc1cc(C(F)(F)F)cc(C(F)(F)F)c1)c1cc(Cl)ccc1O [IMD-0354] + C[C@@H](Oc1cc(-c2cnn(C3CCNCC3)c2)cnc1N)c1c(Cl)ccc(F)c1Cl [Crizotinib] (partner 1 µM)
# In short: as §1
Cell Line,relative viability (CX-5461 + AZD7762; first compound 0.01 µM),relative viability (CX-5461 + AZD7762; first compound 0.03162 µM),relative viability (CX-5461 + AZD7762; first compound 0.1 µM),relative viability (CX-5461 + AZD7762; first compound 0.3162 µM),relative viability (CX-5461 + AZD7762; first compound 1 µM),relative viability (CX-5461 + Olaparib; first compound 0.01 µM),relative viability (CX-5461 + Olaparib; first compound 0.03162 µM),relative viability (CX-5461 + Olaparib; first compound 0.1 µM),relative viability (CX-5461 + Olaparib; first compound 0.3162 µM),relative viability (CX-5461 + Olaparib; first compound 1 µM),relative viability (IMD-0354 + Foretinib; first compound 0.04 µM),relative viability (IMD-0354 + Foretinib; first compound 0.1265 µM),relative viability (IMD-0354 + Foretinib; first compound 0.4 µM),relative viability (IMD-0354 + Foretinib; first compound 1.265 µM),relative viability (IMD-0354 + Foretinib; first compound 4 µM),relative viability (IMD-0354 + Crizotinib; first compound 0.04 µM),relative viability (IMD-0354 + Crizotinib; first compound 0.1265 µM),relative viability (IMD-0354 + Crizotinib; first compound 0.4 µM),relative viability (IMD-0354 + Crizotinib; first compound 1.265 µM),relative viability (IMD-0354 + Crizotinib; first compound 4 µM)
HCC-827,0.193,0.195,0.193,0.22,0.182,0.703,0.69,0.767,0.644,0.611,1.05,0.978,0.625,0.282,0.19,1,0.881,0.736,0.498,0.263
HOP-62,0.643,0.854,0.424,0.194,0.356,0.315,0.355,0.287,,0.254,1.13,1.03,0.42,0.449,0.118,0.999,1.09,0.926,0.546,0.168
LC-2-ad,0.834,0.919,0.836,0.848,0.742,0.643,0.694,0.689,0.667,0.617,0.939,0.885,0.524,0.249,0.205,0.431,0.466,0.37,0.358,0.239
LCLC-97TM1,0.279,0.424,0.177,,0.237,0.313,0.503,0.466,0.333,0.298,0.929,0.824,0.673,0.34,0.164,,0.432,0.211,0.265,0.146
LCLC-103H,0.823,0.829,0.819,0.68,0.762,0.766,0.857,0.793,0.788,0.762,0.745,0.865,0.45,0.335,0.216,1.02,1.18,0.734,0.703,0.352
LK-2,0.443,0.376,0.299,,0.223,0.664,0.957,0.918,,0.497,1.76,1.14,0.515,1.11,0.222,0.22,0.201,0.28,0.29,0.244
LOU-NH91,0.787,0.758,0.74,0.475,0.693,0.973,0.992,0.901,0.524,0.704,0.976,0.981,0.575,0.154,0.134,0.754,0.732,0.538,0.345,0.287
LU99A,0.44,0.303,0.212,0.245,0.122,0.27,0.241,0.297,0.221,0.284,0.655,0.806,0.612,0.682,0.273,0.453,0.62,0.482,0.214,0.203
LXF-289,1.16,1.12,1.08,,0.873,1.03,1.19,1.05,,0.953,0.945,0.99,0.646,0.483,0.129,0.834,0.803,0.575,0.229,0.069
NCI-H23,0.23,0.224,0.186,0.212,0.167,0.376,0.303,0.326,0.333,0.287,0.969,0.955,0.49,0.265,0.232,0.719,0.522,0.376,0.378,0.264
NCI-H322M,0.531,0.517,0.526,0.523,0.509,0.761,0.773,0.691,0.5,0.511,1.12,0.907,0.716,0.31,0.402,1.06,0.972,0.811,0.851,0.257
NCI-H358,0.546,0.593,0.372,0.474,0.363,0.676,0.616,0.575,0.494,0.266,0.753,0.828,0.372,0.163,0.126,0.6,0.611,0.228,0.232,0.348
NCI-H441,1,1.31,1.11,1.36,0.963,0.553,0.664,0.478,0.588,0.448,0.919,0.872,0.478,0.28,0.272,0.573,0.713,0.514,0.363,0.202
NCI-H460,0.627,0.513,0.295,0.563,0.046,0.463,0.451,0.286,0.39,0.0729,0.988,0.858,0.366,0.0865,0.026,0.892,0.808,0.243,0.142,0.0357
NCI-H596,1.07,1.01,0.965,1.07,0.515,0.719,0.715,0.626,1.13,0.676,0.901,0.844,0.634,0.917,0.307,0.928,1.04,0.858,0.955,0.451
NCI-H647,0.617,0.384,0.489,0.439,0.0774,0.703,0.721,0.415,0.552,0.0876,1.57,1.27,0.426,0.554,0.148,1.37,1.2,0.505,0.168,0.185

Cell Line,relative viability (CX-5461 + AZD7762; first compound 0.01 µM),relative viability (CX-5461 + AZD7762; first compound 0.03162 µM),relative viability (CX-5461 + AZD7762; first compound 0.1 µM),relative viability (CX-5461 + AZD7762; first compound 0.3162 µM),relative viability (CX-5461 + AZD7762; first compound 1 µM),relative viability (CX-5461 + Olaparib; first compound 0.01 µM),relative viability (CX-5461 + Olaparib; first compound 0.03162 µM),relative viability (CX-5461 + Olaparib; first compound 0.1 µM),relative viability (CX-5461 + Olaparib; first compound 0.3162 µM),relative viability (CX-5461 + Olaparib; first compound 1 µM),relative viability (IMD-0354 + Foretinib; first compound 0.04 µM),relative viability (IMD-0354 + Foretinib; first compound 0.1265 µM),relative viability (IMD-0354 + Foretinib; first compound 0.4 µM),relative viability (IMD-0354 + Foretinib; first compound 1.265 µM),relative viability (IMD-0354 + Foretinib; first compound 4 µM),relative viability (IMD-0354 + Crizotinib; first compound 0.04 µM),relative viability (IMD-0354 + Crizotinib; first compound 0.1265 µM),relative viability (IMD-0354 + Crizotinib; first compound 0.4 µM),relative viability (IMD-0354 + Crizotinib; first compound 1.265 µM),relative viability (IMD-0354 + Crizotinib; first compound 4 µM)
NCI-H650,1.03,1.01,0.727,1.05,0.623,0.369,0.399,0.399,0.329,0.337,1.07,0.961,0.832,0.515,0.234,0.844,0.714,0.542,0.528,0.2
NCI-H727,0.48,0.709,0.473,0.648,0.566,0.713,0.704,0.762,0.837,0.763,0.94,0.869,0.659,0.711,0.477,0.688,0.827,0.484,0.547,0.385
NCI-H838,0.971,0.941,1.01,0.698,0.696,0.863,0.846,0.726,0.726,0.476,1.08,0.925,0.463,0.579,0.403,0.912,0.776,0.424,0.561,0.279
NCI-H1355,0.75,0.833,0.613,0.78,0.288,0.758,0.811,0.689,0.736,0.714,1.11,0.943,0.646,0.908,0.298,1.29,1.04,0.956,0.97,0.242
NCI-H1437,1.1,1.05,1.11,1.09,1.04,0.654,0.643,0.528,0.648,0.567,1.34,1.16,0.624,0.424,0.251,1.02,0.905,0.548,0.238,0.207
NCI-H1651,0.48,0.491,0.328,0.588,0.143,0.188,0.175,0.191,0.163,0.159,0.816,0.716,0.433,0.312,0.0982,0.765,0.87,0.575,0.609,0.128
NCI-H1666,0.796,0.912,0.728,0.856,0.69,0.708,0.731,0.748,0.696,0.676,0.99,0.982,0.842,0.441,0.351,0.867,1.02,0.94,0.251,0.151
NCI-H1703,,0.11,0.104,,0.107,0.535,0.531,0.334,0.538,0.422,0.407,0.347,0.368,0.299,0.16,0.9,0.626,0.494,0.254,0.215
NCI-H1734,0.583,0.602,0.317,0.327,0.286,0.662,0.67,0.633,0.553,0.511,0.928,0.902,0.548,0.549,0.19,0.803,0.685,0.4,0.422,0.244
NCI-H1755,0.453,0.447,0.38,0.413,0.406,0.85,0.929,0.819,0.806,0.818,0.912,1.05,0.854,0.586,0.278,0.925,0.965,0.46,0.31,0.17
NCI-H1915,0.75,0.74,0.643,0.673,0.608,0.259,0.255,0.242,0.262,0.252,0.976,1.15,0.491,0.818,0.272,0.787,0.906,0.527,0.434,0.194
NCI-H1944,0.444,0.512,0.358,0.269,0.195,0.409,0.381,0.422,0.392,0.395,0.873,0.963,0.887,0.945,0.154,0.947,1.07,,1.04,0.157
NCI-H1975,0.792,0.729,0.737,0.847,0.425,0.898,0.822,0.68,0.853,0.558,1.01,1.03,0.483,0.18,0.16,1.15,0.959,0.546,0.211,0.192
NCI-H1993,0.754,0.893,0.716,0.81,0.78,1.19,1.1,1.1,0.976,1.01,0.768,0.869,0.699,0.477,0.559,0.907,0.824,0.658,0.508,0.557
NCI-H2085,1.05,1.03,0.918,1.04,0.719,0.772,0.783,0.845,0.787,0.736,0.97,0.922,0.791,0.538,0.225,0.613,0.753,0.788,0.511,0.315
NCI-H2087,1.22,1.42,1.44,1.43,1.13,0.683,0.68,0.583,0.602,0.471,1.08,1.04,0.382,0.257,0.189,0.822,0.827,0.265,0.156,0.152
